In patent US12692253B2, “Antimicrobial compounds and methods” (Curza Global, LLC, priority 2019, dated 2026):

Assays:
[1] = test system: E. coli S30 extract (bacterial protein synthesis); assay: E. coli S30 extract coupled transcription-translation luciferase assay (inhibition of bacterial protein synthesis); format: biochemical; conditions: class by IC50 or % inhibition @ 1 μM, read-out: S30 IC50 (μM/% inhib.)
Procedure: E. coli S30 extract: Inhibition of bacterial protein synthesis was determined using the E. coli S30 Extract System for Circular DNA (Promega catalog #L-2010) and Luciferase Assay Reagent (Promega catalog #E1500) with slight modifications to a published protocol. Fyfe, C., Sutcliffe, J. A. and Grossman, T. H. (2012) “Development and characterization of a Pseudomonas aeruginosa in vitro coupled transcription-translation assay system for evaluation of translation inhibitors” J. Microbiol. Methods 90(3), 256-261.
Compounds were serial diluted in 0.5 mL microcentrifuge tubes by mixing and transferring 50 μL from the highest concentration to 50 μL of water, mixing and transferring 50 μL of this 2-fold dilution to 50 μL of water. This mixing and transferring was repeated so that there are a total of 8 tubes with serial dilutions of compound at 10× the desired screening concentration that are ultimately diluted to 1× by the addition of S30 luciferase synthesis mixture. Serial dilutions of compounds were added (2 μL) to wells in a black round bottom 96-well plate. Water (2 μL) was used as a “no inhibitor” control in 4 wells/plate. No DNA control reaction mixture (20 μL; see below) was used as a control in 4 wells/plate for background luminescence. S30 luciferase synthesis mixture (18 μL; see below) was added to wells with compounds or water mixture and incubated at 37° C. for 1 hour. Reactions were stopped by transferring to 4° C. refrigerator for 5 minutes then 25 μL of luciferase activity mix was added. Luminescence was measured using a BioTek Synergy HTX plate reader. % Inhibition was determined relative to no inhibitor controls. • S30 luciferase synthesis mixture: • 445 μL S30 extract, circular • 712 μL S30 Premix without amino acids • 4.45 μL pBESTluc™ DNA (1 μg/μL) • 78 μL complete amino acid mixture • 267 μL water • No DNA control: • 20 μL S30 extract, circular • 32 μL S30 Premix without amino acids • 7 μL complete amino acid mixture • 21 μL water Rabbit Reticulocyte lysate

[2] = biological target: Rabbit Reticulocyte Lysate (eukaryotic protein synthesis); assay: Rabbit reticulocyte lysate luciferase assay (inhibition of eukaryotic protein synthesis); format: biochemical; conditions: class by IC50 or % inhibition @ 1 μM, read-out: Rabbit reticulocyte IC50 (μM/% inhib.)
Procedure: Inhibition of eukaryotic protein synthesis was determined using the Rabbit Reticulocyte Lysate System, Nuclease-Treated from Promega (catalog #L-4960) with slight modifications to the manufacturer's protocol. Compounds were serial diluted in 0.5 mL microcentrifuge tubes by mixing and transferring 50 μL from the highest concentration to 50 μL of water, mixing and transferring 50 μL of this 2-fold dilution to 50 μL of water. This mixing and transferring was repeated so that there are a total of 8 tubes with serial dilutions of compound at 10× the desired screening concentration that are ultimately diluted to 1× by the addition of rabbit reticulocyte luciferase synthesis mixture. Serial dilutions of compounds were added (2.5 μL) to wells in a black round bottom 96-well plate. Water (2.5 μL) was used as a “no inhibitor” control in 4 wells/plate. No RNA control reaction mixture (2 μL; see below) was used as a control in 4 wells/plate for background luminescence. Rabbit reticulocyte luciferase synthesis mixture (22.5 μL; see below) was added to wells with compounds or water mixture and incubated at 30° C. for 90 minutes. Luciferase assay reagent (25 μL) was added with luminescence measured using a BioTek Synergy HTX plate reader. % Inhibition was determined relative to no inhibitor controls.
Rabbit Reticulocyte Luciferase Synthesis Mixture:
• 1,000 μL rabbit reticulocyte lysate • 5.7 μL Luciferase Control RNA (1 μg/μL) • 26 μL complete amino acid mixture • 395 μL water • No RNA Control • 70 μL rabbit reticulocyte lysate • 2 μL complete amino acid mixture • 28 μL water Minimum Inhibitory Concentration (MIC)

Row | Structure (SMILES) | IC50 [1] | IC50 [2]
1 | Cc1cc(-n2ccc(NC(=O)N3CCN(C(=O)[C@@](C)(N)CO)CC3)nc2=O)ccc1CN1C[C@@H]2[C@@H](N)[C@@H]2C1 [Compound 1] | < 0.5 µM | ≥ 1 µM
2 | CC(C)(N)C(=O)N1CCN(C(=O)Nc2ccn(-c3cc(CN4C[C@@H]5[C@@H](N)[C@@H]5C4)cc(C(F)(F)F)c3)c(=O)n2)CC1 [Compound 5] | ≥ 1 µM | ≥ 1 µM
3 | CC(C)(N)C(=O)N1CCN(C(=O)Nc2ccn(-c3ccc(CN4C[C@@H]5[C@@H](N)[C@@H]5C4)c(C(F)(F)F)c3)c(=O)n2)CC1 [Compound 6] | ≥ 1 µM | ≥ 1 µM
4 | CCOC(=O)C(c1ccc(-n2ccc(NC(=O)N3CCN(C(=O)C(C)(C)N)CC3)nc2=O)cc1)N1C[C@@H]2[C@@H](N)[C@@H]2C1 (stereo partly drawn) [Compound 10] | ≥ 1 µM | ≥ 1 µM
5 | C[C@](N)(CO)C(=O)N1CCN(C(=O)Nc2ccn(-c3ccc(CN4C[C@@H]5[C@@H](N)[C@@H]5C4)c(C(F)(F)F)c3)c(=O)n2)CC1 [Compound 11] | ≥ 1 µM | ≥ 1 µM
6 | CC(C)(N)C(=O)N1CCN(C(=O)Nc2ccn(-c3ccc(CN4CCC5(CC5N)C4)cc3)c(=O)n2)CC1 (stereo not drawn) [Compound 22] | < 0.5 µM | ≥ 1 µM
7 | NC[C@H](N)C(=O)N1CCN(C(=O)Nc2ccn(-c3ccc(CN4C[C@@H]5[C@@H](N)[C@@H]5C4)cc3)c(=O)n2)CC1 [Compound 43] | ≥ 1 µM | ≥ 1 µM
8 | C[C@](N)(CN)C(=O)N1CCN(C(=O)Nc2ccn(-c3ccc(CN4C[C@@H]5[C@@H](N)[C@@H]5C4)cc3)c(=O)n2)CC1 [Compound 44] | ≥ 1 µM | ≥ 1 µM
9 | CC(C)(N)C(=O)N1CCN(C(=O)Nc2ccn(-c3ccc(CN4CCC5(CCC(N)CC5)CC4)cc3)c(=O)n2)CC1 [Compound 55] | < 0.5 µM | ≥ 1 µM
10 | CC(C)(N)C(=O)N1CCN(C(=O)Nc2ccn(-c3ccc(CN4C[C@@H]5[C@@H](N)[C@@H]5C4)nc3)c(=O)n2)CC1 [Compound 57] | ≥ 1 µM | ≥ 1 µM
11 | CC(C)(N)C(=O)N1CCN(C(=O)Nc2ccn(-c3ccc(CN4CCN5CCNCC5C4)cc3)c(=O)n2)CC1 (stereo not drawn) [Compound 78] | ≥ 1 µM | ≥ 1 µM
12 | CC(C)(N)C(=O)N1CCN(C(=O)Nc2ccn(-c3ccc(CN4C[C@@H]5CN[C@@H]5C4)cc3)c(=O)n2)CC1 [Compound 79] | ≥ 1 µM | ≥ 1 µM
13 | CC(C)(N)C(=O)N1CCN(C(=O)Nc2ccn(-c3cccc(CCN4C[C@@H]5[C@@H](N)[C@@H]5C4)c3)c(=O)n2)CC1 [Compound 86] | ≥ 1 µM | ≥ 1 µM
14 | N[C@@H]1[C@H]2CN(CCc3cccc(-n4ccc(NC(=O)N5CCNCC5)nc4=O)c3)C[C@@H]12 [Compound 87] | ≥ 1 µM | ≥ 1 µM
15 | N[C@@H]1[C@H]2CN(CCc3cccc(-n4ccc(NC(=O)N5CCN(C(=O)C6(N)CCC6)CC5)nc4=O)c3)C[C@@H]12 [Compound 88] | ≥ 1 µM | ≥ 1 µM
16 | CC(C)(N)C(=O)N1CCN(C(=O)Nc2ccn(-c3ccc(CCN4C[C@@H]5[C@H](N)[C@@H]5C4)cc3)c(=O)n2)CC1 [Compound 90] | ≥ 1 µM | ≥ 1 µM
17 | CC(C)(N)C(=O)N1CCN(C(=O)Nc2ccn(-c3ccc(CCN4CC5(CC(N)C5)C4)cc3)c(=O)n2)CC1 [Compound 92] | < 0.5 µM | ≥ 1 µM
18 | CC(CN1C[C@@H]2[C@@H](N)[C@@H]2C1)c1ccc(-n2ccc(NC(=O)N3CCN(C(=O)C(C)(C)N)CC3)nc2=O)cc1 (stereo partly drawn) [Compound 97] | ≥ 1 µM | ≥ 1 µM
19 | CC(Cc1ccc(-n2ccc(NC(=O)N3CCN(C(=O)C(C)(C)N)CC3)nc2=O)cc1)N1C[C@@H]2[C@@H](N)[C@@H]2C1 (stereo partly drawn) [Compound 98] | ≥ 1 µM | ≥ 1 µM
20 | CC(C)(N)C(=O)N1CCN(C(=O)Nc2ccn(-c3cccc(CCN4C[C@H]5CNC[C@H]5C4)c3)c(=O)n2)CC1 [Compound 158] | ≥ 1 µM | 
